# In PubChem BioAssay AID1963871 (Molecular Pharmacology Branch, DTP, NCI, 2024):
# System: KRAS-mutant PDC multicell tumor spheroid viability
# Experiment: Anticancer human tumor 521955-158-R2-J5-PDC patient-derived pancreatic carcinoma cell line growth inhibition [KRAS2]
# Conditions: for IC50: curve of first compound; for viability, T/C: stronger effect = lower value
# From the text: Multicellular complex tumor spheroid response to RAS pathway inhibitors in combination with a targeted agents in patient-derived cell lines with oncogenic KRAS variants from multiple cancer types
# A high-throughput screen of multi-cell type tumor spheroids was designed to identify active combinations of targeted small molecules and KRAS pathway inhibitors. Complex spheroids include a stromal component modeled by human endothelial cells (HUVEC) and fibroblasts modeled by human mesenchymal stem cells (MSCs). The concentration ranges selected for each drug and investigational agent were based upon clinically achievable concentrations if the clinical Cmax of the agent was known.
# Compounds. The drugs and investigational agents: BI-3406 (NSC825286), BAY-293 (NSC824723), batoprotafib (TNO155; NSC825523), sotorasib (AMG 510; NSC818433), MRTX1257 (NSC819558), elimusertib (BAY 1895344; NSC800525), molibresib (GSK525762; NSC774829), temuterkib (LY3214996; NSC803410), venetoclax (NSC766270), alisertib (NSC759677), olaparib (NSC753686), talazoparib (NSC767125), erdafitinib (NSC781556), ipatasertib (NSC767898), cabozantinib (NSC761068), nintedanib (NSC756659), abemaciclib (NSC768073), docetaxel (NSC628503), trametinib (NSC758246), and sapanisertib (NSC764658) were obtained from the National Cancer Institute (NCI) Developmental Therapeutics Program Chemical Repository. The FDA-approved anticancer drug set is available from the Developmental Therapeutics Program. […] The stock solutions were prepared in dimethyl sulfoxide (DMSO, Sigma-Aldrich, St. Louis, MO, cat. D2650) at 800-fold the tested concentration and stored at -70 degrees C prior to their use. All drugs and investigational agents were tested over a range starting from a high concentration at or near the clinical Cmax and decreasing in half-log increments. If the clinical Cmax for an agent had not been determined, the highest concentration tested was 10 microM.
# Cell Culture. All cells were maintained in an incubator at 37 degrees C and 5% CO2 with 95% humidity. The PDC lines were cultured according to standard operating procedures established by the NCI PDMR (https://pdmr.cancer.gov/sops/default.htm). Briefly, all PDCs were thawed and cultured in Matrigel-coated flasks prepared with a working solution of 1X Ham's F-12 nutrient mix, without supplementation (Invitrogen, Waltham, MA, cat. 11765054), 100 U/mL penicillin-streptomycin (Invitrogen, cat. 15140122), and 2.5% Matrigel (Corning Inc., Corning, NY, cat. 354248) for the first three passages. All PDCs were cultured in complete DMEM/F-12 media containing advanced DMEM/F-12 (Invitrogen, cat. 12634028), 4.9% defined fetal bovine serum, heat inactivated (HyClone Laboratories Inc., Logan, UT, cat. SH30070.03HI), 389 ng/mL hydrocortisone (Sigma-Aldrich, cat. H4001), 9.7 ng/mL human EGF recombinant protein (Invitrogen, cat. PHG0313), 23.4 microg/mL adenine (Sigma-Aldrich, cat. A2786), 97.3 U/mL penicillin-streptomycin (Invitrogen, cat. 15140122), 1.9 mM L-glutamine (Invitrogen, cat. 25030081), and 9.7 microM Y-27632 dihydrochloride (Tocris Bioscience, Bristol, United Kingdom, cat. 1254). The PDCs were cultured in complete DMEM/F12 media without 9.7 microM Y-27632 dihydrochloride for at least two passages prior to the screen. The established cell line HOP-62 was cultured in RPMI 1640 medium, HEPES (Invitrogen, cat. 22400105) with 10% defined fetal bovine serum (HyClone Laboratories Inc., cat. SH30070.03) and 2 mM L-glutamine (Invitrogen, cat. 25030081). The pooled donor HUVEC were cultured in endothelial cell growth medium 2 (PromoCell, Heidelberg, Germany, cat. C-22011) and the hMSC were cultured in mesenchymal stem cell growth medium 2 (PromoCell, cat. C-28009). For all experiments, HUVEC and hMSC were used at passages </=5, while the malignant cell lines were used at passages </=15. […]
# [1] = second compound 0.1 µM, first compound 0.0316 µM
# [2] = second compound 0.1 µM, first compound 0.1 µM
# [3] = second compound 0.1 µM, first compound 0.316 µM
# [4] = second compound 0.1 µM, first compound 1 µM
# [5] = second compound 0.1 µM, first compound 3.16 µM
# [6] = second compound 0.316 µM, first compound 0.0316 µM
# [7] = second compound 0.316 µM, first compound 0.1 µM
# [8] = second compound 0.316 µM, first compound 0.316 µM
# [9] = second compound 0.316 µM, first compound 1 µM
# [10] = second compound 0.316 µM, first compound 3.16 µM
# [11] = second compound 1 µM, first compound 0.0316 µM
# [12] = second compound 1 µM, first compound 0.1 µM
# [13] = second compound 1 µM, first compound 0.316 µM
# [14] = second compound 1 µM, first compound 1 µM
# [15] = second compound 1 µM, first compound 3.16 µM
# [16] = second compound 3.16 µM, first compound 0.0316 µM
# [17] = second compound 3.16 µM, first compound 0.1 µM
# [18] = second compound 3.16 µM, first compound 0.316 µM
# [19] = second compound 3.16 µM, first compound 1 µM
# [20] = second compound 3.16 µM, first compound 3.16 µM
# [21] = second compound 0.0316 µM, first compound 0.01 µM
# [22] = second compound 0.0316 µM, first compound 0.0316 µM
# [23] = second compound 0.0316 µM, first compound 0.1 µM
# [24] = second compound 0.1 µM, first compound 0.01 µM
# [25] = second compound 0.316 µM, first compound 0.01 µM
# [26] = second compound 1 µM, first compound 0.01 µM
# [27] = second compound 3.16 µM, first compound 0.01 µM
# 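Further: viability read after seven days of drug exposure.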
compound,measurement,setting,value
CC1OCC2(CCN(c3cnc(Sc4ccnc(N)c4Cl)c(N)n3)CC2)C1N (stereo not given) + C=CC(=O)N1CCN(c2nc(=O)n(-c3c(C)ccnc3C(C)C)c3nc(-c4c(O)cccc4F)c(F)cc23)C(C)C1,IC50,second compound 0.1 µM,> 10000 nM
same,IC50,second compound 0.316 µM,> 10000 nM
same,IC50,second compound 1 µM,> 10000 nM
same,IC50,second compound 3.16 µM,> 10000 nM
same,IC50,second compound 10 µM,> 10000 nM
same,"viability, T/C",[1],89.8%
same,"viability, T/C",[2],96.4%
same,"viability, T/C",[3],76.3%
same,"viability, T/C",[4],72%
same,"viability, T/C",[5],97.5%
same,"viability, T/C","second compound 0.1 µM, first compound 10 µM",67.6%
same,"viability, T/C",[6],89.4%
same,"viability, T/C",[7],81.5%
same,"viability, T/C",[8],76.2%
same,"viability, T/C",[9],75.7%
same,"viability, T/C",[10],71.6%
same,"viability, T/C","second compound 0.316 µM, first compound 10 µM",63.4%
same,"viability, T/C",[11],101%
same,"viability, T/C",[12],88.4%
same,"viability, T/C",[13],91.8%
same,"viability, T/C",[14],87.4%
same,"viability, T/C",[15],71.7%
same,"viability, T/C","second compound 1 µM, first compound 10 µM",66.4%
same,"viability, T/C",[16],92.1%
same,"viability, T/C",[17],87.5%
same,"viability, T/C",[18],72.3%
same,"viability, T/C",[19],79.1%
same,"viability, T/C",[20],62%
same,"viability, T/C","second compound 3.16 µM, first compound 10 µM",64.7%
same,"viability, T/C","second compound 10 µM, first compound 0.0316 µM",66.2%
same,"viability, T/C","second compound 10 µM, first compound 0.1 µM",59.3%
same,"viability, T/C","second compound 10 µM, first compound 0.316 µM",66.2%
same,"viability, T/C","second compound 10 µM, first compound 1 µM",61.3%
same,"viability, T/C","second compound 10 µM, first compound 3.16 µM",54.6%
same,"viability, T/C","second compound 10 µM, first compound 10 µM",57.8%
CC(=O)OC12COC1CC(O)C1(C)C(=O)C(O)C3=C(C)C(OC(=O)C(O)C(NC(=O)OC(C)(C)C)c4ccccc4)CC(O)(C(OC(=O)c4ccccc4)C21)C3(C)C (stereo not given) + C=CC(=O)N1CCN(c2nc(OCC3CCCN3C)nc3c2CCN(c2cccc4cccc(C)c24)C3)CC1CC#N,IC50,second compound 0.0316 µM,< 10 nM
same,IC50,second compound 0.1 µM,< 10 nM
same,IC50,second compound 0.316 µM,< 10 nM
same,IC50,second compound 1 µM,< 10 nM
same,IC50,second compound 3.16 µM,< 10 nM
same,"viability, T/C",[21],21.3%
same,"viability, T/C",[22],15.8%
same,"viability, T/C",[23],12.7%
same,"viability, T/C","second compound 0.0316 µM, first compound 0.316 µM",15.2%
same,"viability, T/C","second compound 0.0316 µM, first compound 1 µM",15.4%
same,"viability, T/C","second compound 0.0316 µM, first compound 3.16 µM",20.6%
same,"viability, T/C",[24],19.4%
same,"viability, T/C",[1],16.3%
same,"viability, T/C",[2],12.6%
same,"viability, T/C",[3],12.7%
same,"viability, T/C",[4],15.1%
same,"viability, T/C",[5],18.3%
same,"viability, T/C",[25],19.3%
same,"viability, T/C",[6],10%
same,"viability, T/C",[7],9.97%
same,"viability, T/C",[8],11.8%
same,"viability, T/C",[9],17.3%
same,"viability, T/C",[10],19.8%
same,"viability, T/C",[26],18.9%
same,"viability, T/C",[11],13.2%
same,"viability, T/C",[12],10%
same,"viability, T/C",[13],9.11%
same,"viability, T/C",[14],11.5%
same,"viability, T/C",[15],14.3%
same,"viability, T/C",[27],22.1%
same,"viability, T/C",[16],15.5%
same,"viability, T/C",[17],15.3%
same,"viability, T/C",[18],15.8%
same,"viability, T/C",[19],16.9%
same,"viability, T/C",[20],21.8%
CN(C)C/C=C/C(=O)Nc1cc2c(Nc3ccc(F)c(Cl)c3)ncnc2cc1O[C@H]1CCOC1 + C=CC(=O)N1CCN(c2nc(OCC3CCCN3C)nc3c2CCN(c2cccc4cccc(C)c24)C3)CC1CC#N,IC50,second compound 0.0316 µM,> 100 nM
same,IC50,second compound 0.1 µM,> 100 nM
same,IC50,second compound 0.316 µM,> 100 nM
same,IC50,second compound 1 µM,> 100 nM
same,IC50,second compound 3.16 µM,< 0.316 nM
same,"viability, T/C","second compound 0.0316 µM, first compound 0.000316 µM",97.5%
same,"viability, T/C","second compound 0.0316 µM, first compound 0.001 µM",104%
same,"viability, T/C","second compound 0.0316 µM, first compound 0.00316 µM",75.7%
same,"viability, T/C",[21],73.5%
same,"viability, T/C",[22],67.9%
same,"viability, T/C",[23],65.6%
same,"viability, T/C","second compound 0.1 µM, first compound 0.000316 µM",83.5%
same,"viability, T/C","second compound 0.1 µM, first compound 0.001 µM",89.3%
same,"viability, T/C","second compound 0.1 µM, first compound 0.00316 µM",98.8%
same,"viability, T/C",[24],70.5%
same,"viability, T/C",[1],76.7%
same,"viability, T/C",[2],72.4%
same,"viability, T/C","second compound 0.316 µM, first compound 0.000316 µM",77.8%
same,"viability, T/C","second compound 0.316 µM, first compound 0.001 µM",73.2%
same,"viability, T/C","second compound 0.316 µM, first compound 0.00316 µM",65.9%
same,"viability, T/C",[25],56.7%
same,"viability, T/C",[6],54.7%
same,"viability, T/C",[7],53.6%
same,"viability, T/C","second compound 1 µM, first compound 0.000316 µM",73.5%
same,"viability, T/C","second compound 1 µM, first compound 0.001 µM",85.1%
same,"viability, T/C","second compound 1 µM, first compound 0.00316 µM",70.4%
same,"viability, T/C",[26],65.1%
same,"viability, T/C",[11],58.8%
same,"viability, T/C",[12],54.4%
same,"viability, T/C","second compound 3.16 µM, first compound 0.000316 µM",4.17%
same,"viability, T/C","second compound 3.16 µM, first compound 0.001 µM",3.27%
same,"viability, T/C","second compound 3.16 µM, first compound 0.00316 µM",1.28%
same,"viability, T/C",[27],1.27%
same,"viability, T/C",[16],0.96%
same,"viability, T/C",[17],0.29%
